Assay results as given in patent US20090041818A1, “ANTIVIRAL AGENT, AND FABRIC AND ANTIVIRAL MEMBER […] AGENT” (priority 2003, published 2009).

Test system: influenza type A virus, Cygnus columbianus/Shimane/499/83 (H5N3) (avian strain)

## [O]=[Ca] [Sample 1, calcium oxide]
  antiviral effect (in words, comparison of samples): high antiviral effect
